Common to all, as to format: cell-based
Experiment [1] has as its system pancreatic endoderm cells after expansion culture. Briefly: Induction of differentiation into β-like cells after expansion culture. On the procedure: After the expansion culture, the differentiation into β-like cells was induced using the method by Kimura et al. (Non Patent Literature 1) with a portion thereof being modified. Briefly, pancreatic endoderm cells were detached from a 6-well plate using trypsin, and were then suspended in the S4 culture medium at 3×10^5 cells/ml. The cells were seeded on a V-bottomed 96-well plate at 3×10^4 cells/100 μl/well. […] The induction of differentiation of pancreatic endoderm cells that had been repeatedly passaged 5 times using the expansion culture method with “Y-27632+DMSO” or “Y-27632+ALK5i+RA” into β-like cells was promoted. Then, the efficiency of induction into β-like cells was compared with that of a cell cluster obtained by inducing pancreatic endoderm cells that had not been passaged into B-like cells.

The test system of experiment [2] is pancreatic endoderm cells. Nature of the experiment: α-SMA immunostaining at the third passage of expansion culture. The following applies: Y-27632 50 μM vs non-administration, FIG. 6. On the procedure: FIG. 6 Images of pancreatic endoderm cells immunostained against α-SMA at the third passage of the pancreatic endoderm cells with or without the administration of Y-27632 (50 μM). The cells after the expansion culture were washed with PBS(−) twice, and were then fixed using 4% PFA at 4° C. for 20 minutes. The cells were blocked with a blocking solution (PBS(−) containing 5% donkey serum and 0.4% Triton X-100) at room temperature for 30 minutes. The cells were incubated in a primary antibody solution diluted with the blocking solution at 4° C. overnight. After the primary antibody solution was washed off, the cells were incubated at room temperature for 1 hour in a fluorescent secondary antibody solution diluted with the blocking solution. Fluorescently immunostained images were acquired using BZ-710 or BZ-800 (Keyence). A mechanism by which the expansion culture of pancreatic endoderm cells with Y-27632 was enabled was examined. It was shown that, at the third passage of the expansion culture, the number of α-SMA-positive cells increased in the Y-27632 non-administration group compared with the group to which Y-27632 at a concentration of 50 μM was administered (FIG. 6). That is to say, it was observed that fibrosis or epithelial-mesenchymal transition was suppressed by administering Y-27632 to the cells.

Experiment [3] has as its system PDX1+/NKX6.1+ pancreatic endoderm cells. Briefly: Expansion culture with Y-27632 at different concentrations. The following applies: 40 days, FIG. 5-A. The procedure: FIG. 5-A Changes in the number of PDX1^+/NKX6.1^+ pancreatic endoderm cells and the total number of cells during expansion culture with Y-27632 (0, 10, or 50 μM). (1) After the cells produced in clause 1 above were washed with PBS(−), 1 ml of 0.25% trypsin-EDTA was added thereto, and the cells were incubated at 37° C. and 5% CO2 for 5 minutes. (2) The adherent cells were detached through pipetting and were added to a 50-ml centrifuge tube. (3) 4 ml of DMEM (Dulbecco's Modified Eagle Medium)/10% FBS/PS (penicillin-streptomycin) was added to the centrifuge tube. (4) The resulting mixture was centrifuged at 400 G for 3 minutes, and the supernatant was removed. (5) The cells were suspended in improved MEM (containing 10 μM Y-27632, 0.5×B-27 Supplement, and 100 U/ml penicillin/streptomycin), and were counted. (6) When the cells were seeded on a 6-well plate, an amount of the suspension necessary to provide 1×10^6 cells/well was collected and was centrifuged at 400 G for 3 minutes (2×10^5 cells/well for a 24-well plate). (7) After the supernatant was removed, the cells were re-suspended in improved MEM (containing 100 ng/ml KGF, 50 ng/ml EGF, 10 mM nicotinamide, 50 μM Y-27632, 0.5×B-27 Supplement, and 100 U/ml penicillin/streptomycin), the suspension was adjusted to correspond to 2 ml/well, and then the cells were seeded. A 6-well plate to which the cells were to be seeded had been coated in advance by adding a solution formed by mixing 10 μl of iMatrix-511 silk and 1.5 ml of PBS(−) to each well 1 hour before seeding, and incubating the plate at 37° C. and 5% CO2 for 1 hour. (8) On the next day (Day 1), the cells were washed with improved MEM, and then the culture medium was changed to improved MEM (5 ml/well) containing 100 ng/ml KGF, 50 ng/ml EGF, 10 mM nicotinamide, 50 μM Y-27632, 0.5×B-27 Supplement, and 100 U/ml penicillin/streptomycin. (9) The cells were washed with improved MEM 3 days after that (on Day 4), and then the culture medium was changed to the same culture medium as that in the step (7) (5 ml/well). (10) The steps (1) to (7) above were conducted 3 days after that (on Day 7), and the next passage (expansion culture) was conducted. Expansion culture and passage culture were repeated by repeating the steps (8), (9), and (10) from the next day. One round of the passage (expansion culture) corresponded to 7 days (operations above). FIGS. 4-A show the outline of this procedure. […]

For `C[C@@H](N)[C@H]1CC[C@H](C(=O)Nc2ccncc2)CC1` [Y-27632], the “potential to differentiate into β-like cells” value in experiment [1] (after 2 rounds of expansion culture with Y-27632 50 μM, FIG. 4-G) is recorded as “had a potential to differentiate”. The “efficiency of induction to β-like cells on repeated expansion culture” value in experiment [1] (culture medium for expansion culture with Y-27632) is “tended to gradually decrease”. In addition, the “fibrosis or epithelial-mesenchymal transition (α-SMA-positive cells)” value in experiment [2] is reported as “suppressed”. For the same compound, the “number of PDX1+/NKX6.1+ pancreatic endoderm cells increased by a factor of” value in experiment [3] (Y-27632 10 μM) and in experiment [3] (Y-27632 50 μM) was “about 1×10^4” each time. The “total number of cells increased by a factor of” value in experiment [3] (Y-27632 10 μM) and in experiment [3] (Y-27632 50 μM) was “about 1×10^4” throughout.
